Counter-ions that a name gives are not always drawn.
Legend:
[1] = Phase I/IIA dose escalation: visual symptoms (eye-related AE) per dose group; type: in vivo, human
Protocol: The dosing will be 15, 30, 60, 120, 170, 250, 400, or 600 mg of the 6-(4-Tert-Butylphenoxy)Pyridin-3-Amine monohydrochloride salt or higher per day or alternatively 20, 40, 60, 120, 170, 250, 400, or 600 mg of the 6-(4-Tert-Butylphenoxy)Pyridin-3-Amine monohydrochloride salt or higher per day. Dosing of 15, 30, 60, 120, 170, 250, 400, or 600 mg of the 6-(4-Tert-Butylphenoxy)Pyridin-3-Amine monohydrochloride salt corresponds to dosing of 13, 26, 52, 104, 148, 217, 348, or 522 mg of 6-(4-Tert-Butylphenoxy)Pyridin-3-Amine (free base). Dosing of 20, 40, 60, 120, 170, 250, 400, or 600 mg of the 6-(4-Tert-Butylphenoxy)Pyridin-3-Amine monohydrochloride salt corresponds to dosing of 17, 35, 52, 104, 148, 217, 348, or 522 mg of 6-(4-Tert-Butylphenoxy)Pyridin-3-Amine (free base). For this study, 6-(4-Tert-Butylphenoxy)Pyridin-3-Amine monohydrochloride salt was formulated into a capsule having a drug load of 5, 10, 20, 50 and 100 mg, respectively intended to be administered orally. • Patients will meet the following criteria:
In the dose escalation cohort, patients in dose group (DG) 4 receiving 120mg of 6-(4-Tert-Butylphenoxy)Pyridin-3-Amine monohydrochloride salt and patients in higher dose groups reported visual symptoms with increasing incidence. It is believed that the occurrence of visual symptoms is a pharmacodynamic effect of 6-(4-Tert-Butylphenoxy)Pyridin-3-Amine. This makes a dose of 120 mg and higher of the 6-(4-Tert-Butylphenoxy)Pyridin-3-Amine monohydrochloride salt the therapeutic dose of choice.

NOTCH target genes [2] = assay: NOTCH target gene expression in hair follicles of Phase 1 patients (Nanostring); type: in vivo, human; settings: Homo sapiens, hair follicle, read-out: Inhibition range, NOTCH target down regulation
Description: Hair follicles were obtained at pre-defined time points to measure changes in NOTCH target genes expression by 6-(4-Tert-Butylphenoxy)Pyridin-3-Amine treatment. NOTCH target gene down-regulation in hair follicles has been reported to be a robust and indicative biomarker that correlates with both clinical efficacy and the incidence of DLTs (Tanis K Q, et al. Clin Pharmacol Ther 2016; 99(4):370-80; Cook N, et al. BJC 2018; 118(6):793-801).
Between 5 to 10 hairs were plucked to extract the complete and undamaged hairbulb (full hair follicle), and processed as described in Camidge D R, et al. Br J Cancer 2005; 92:1837-41 and Bradley B J, et al. Mol EcolNotes 2005; 5:961-4. RNA concentration was measured by Qubit (RNAHighSensitivity), and RNA integrity was evaluated on a RNA 6000 Pico chip. RNA samples were tested for gene expression profiling on a Nanostring platform.
(§1) Table 1: NOTCH target down regulation in hair follicles and blood cells from Phase 1 patients. Target gene down regulation (CCND3, cyclin-D3; HES1, Hairy and enhance of split-1; HES4, Hairy and enhance of split-4; HESS, Hairy and enhance of split-5; HEY1, hes related family bHLH transcription factor with YRPW motif1; HEY2; hes related family bHLH transcription factor with YRPW motif 2; HEYL, hes-related family bHLH transcription factor with YRPW motif-like; IL7R-α, Interleukin-7 receptor subunit alpha; NOTCH1; NOTCH2; NRARP (NOTCH Regulated Ankyrin Repeat Protein): […]

NOTCH target genes [3] = assay: NOTCH target gene expression in whole blood of Phase 1 patients (Nanostring); type: in vivo; settings: Homo sapiens, 600 mg dose group, CCND3, HEY1, IL7Rα, NOTCH1, NOTCH2, read-out: Inhibition range, NOTCH target down regulation
Protocol: In addition to hair follicles, gene expression profiling to measure changes in NOTCH target genes was also performed in whole blood as an alternative surrogate tissue.
Whole blood samples for gene expression analysis were collected in PAXgene Blood RNA Tubes and RNA extracted following their standard Blood RNA Kit for silica-membrane-based RNA isolation and purification (Beckton Dickinson). RNA samples were tested for gene expression profiling on a Nanostring platform.
as §1

Structure (SMILES): CC(C)(C)c1ccc(Oc2ccc(N)cn2)cc1 [6-(4-Tert-Butylphenoxy)Pyridin-3-Amine monohydrochloride]
- Eye-related AE, % on total pts per DG ([1]; DG4 (120 mg)): 43%
- dose at and above which visual symptoms were reported (increasing incidence) ([1]; DG4 and higher dose groups, once daily oral): ≥ 120 mg
- Eye-related AE, % on total pts per DG ([1]; DG5 (170 mg)): 67%
- Eye-related AE, % on total pts per DG ([1]; DG6 (250 mg)): 75%
- Eye-related AE, % on total pts per DG ([1]; DG7 (400 mg)): 67%
- Eye-related AE, % on total pts per DG ([1]; DG8 (600 mg)): 67%
- Adaptative visual difficulty, #AEs ([1]; all dose groups): 1
- Blurred vision, #AEs ([1]; all dose groups): 6
- Eye disorder, #AEs ([1]; all dose groups): 2
- Eye-related AE Total, #AEs ([1]; all dose groups): 26
- Intermittent color vision deficiency/ Intermittent blurred vision, #AEs ([1]; all dose groups): 2
- Photophobia, #AEs ([1]; all dose groups): 2
- Photopsy, #AEs ([1]; all dose groups): 3
- Transient defect in accommodation to dim light, #AEs ([1]; all dose groups): 7
- Visual alteration, #AEs ([1]; all dose groups): 2
- Visual disturbance in light exposure, #AEs ([1]; all dose groups): 1
- inhibition at 60 mg (NOTCH target genes [2]; 60 mg dose group, HES4, HES5, NRARP): ≤ 80%
- inhibition at 120 mg (NOTCH target genes [2]; 120 mg dose group, CCND3, HES4, HES5, HEYL, HEY2): ≤ 95%
- inhibition at 170 mg (NOTCH target genes [2]; 170 mg dose group, HES1): ≤ 75%
- inhibition at 250 mg (NOTCH target genes [2]; 250 mg dose group, CCND3, HES1, HEY2, NRARP): ≤ 80%
- inhibition at 600 mg (NOTCH target genes [3]): ≤ 50%

From US20230338347A1, “New Use of Inhibitors of the Notch Signalling Pathway” (Cellestia Biotech AG, priority 2020, published 2023)
